Measurements taken from patent publication US20120237937A1, “METHODS TO DETECT CANCER IN ANIMALS” (UNIVERSITY OF LOUISVILLE RESEARCH FOUNDATION, INC., priority 2009, published 2012).
Blank lines part the entries; values can stand above or below the compound they belong to.

Key:
lung tumor = test: Response of lung lesions of patient 25b to Erlotinib; type: in vivo, human; settings: Stage I
Text: The horizontal dotted line represents a ratio of 1. […] See also, Fan et al. (2009) Exp. Molec. Pathol. 87, 83-86.

[1] = Time course of plasma 13C-glucose and 13C-lactate in SCID mice by NMR; type: in vivo, SCID mouse
Protocol: (§1) A 20% solution of glucose in normal saline was sterile-filtered. 100 μL of this solution, or a 1:10 dilution (2%) were injected into the tail vein of a restrained mouse without anesthesia.
Approximately 50 μL samples of blood were taken intraorbitally at timed intervals, chilled and separated into plasma and whole blood by centrifugation at 4° C. at 3,000 g for 5 minutes. Plasma was flash frozen in liquid N2 for storage prior to workup.
Twenty to thirty μl of plasma was made to 10% trichloroacetic acid (TCA) and centrifuged at 4° C., at ≧22,000 g for 20 minutes to remove denatured proteins. The polar supernatant was lyophilized to remove TCA before preparation for NMR and GC-MS analysis.
(§2) NMR spectra were recorded at 14.1 T on a Varian Inova spectrometer equipped with a 5 mm inverse triple resonance cold probe, at 20° C. 1D NMR spectra were recorded with an acquisition time of 2 s and a recycle time of 5 sec. Concentrations of metabolites and ^13C incorporation were determined by peak integration of the ^1H NMR spectra referenced to the DSS methyl groups, with correction for differential relaxation, as previously described (See, Lane et al. (2008) Biophysical Tools for Biologists. 84: 541-588; Fan et al. (2008) Progress in NMR Spectroscopy 52: 69-117; Lane et al. (2007) Metabolomics 3: 79-86.). ^1H Spectra were typically processed with zero filling to 131 k points, and apodized with an unshifted Gaussian and a 0.5 Hz line broadening exponential.
The two SCID mice were injected via the tail vein with […] [U-^13C]-glucose. Blood was sequentially taken intraorbitally, and analyzed by NMR as described in the NMR Spectroscopy section. To assess the optimal time for metabolizing the ^13C6-glucose in mice, plasma samples were taken at 15-minute intervals and processed for NMR analysis. […] The initial glucose enrichment ranged from 30 to >50% depending on the size of the mouse, which means that the plasma glucose concentration was roughly doubled immediately after the bolus [U-^13C]-glucose injection. The % enrichment for glucose decreased rapidly and asymptotically within one hour, presumably via the normal homeostatic mechanism. […] The initial rate of ^13C lactate production was approximately equal to the initial rate of glucose consumption, but then decayed after about 20 minutes.

[2] = NMR 13C-isotopomer profiling of TCA extracts of paired non-cancerous and cancerous lung tissues; settings: in vivo
Protocol: Lung cancer patients were recruited based on the criteria of surgical eligibility and no history of diabetes. Each patient was consented in accordance with the U.S. HIPAA regulations. The following patient protocol was approved by the Internal Review Board at the University of Louisville. Ten grams uniformly ^13C labeled glucose ([U-^13C]-Glc or ^13C6-Glc or ^13C6-Glucose) in sterile saline solution were infused i.v. over a 30 min time period into each patient in the pre-op room approximately 3 or 12 hr prior to resection. Whole blood samples were collected into a vacutainer containing the anticoagulant K3EDTA or K3-EDTA before and after [U-^13C]-Glc infusion as well as after the surgery. Additional blood samples were collected 3 and 12 hr after the [U-^13C]-Glc infusion for the 12 hr treatment cases. […] The blood samples were placed on ice immediately after collection and centrifuged at 4° C. at 3,500×g for 15 min to recover the plasma fraction. All blood samples were aliquoted and flash-frozen in liquid N2 within 30 min of collection. Potassium EDTA was used as an anti-coagulant to minimize metabolic artifacts associated with anti-coagulation; it also served to remove the influence of interfering cations such as paramagnetic Fe^3+ and Cu^2+ for NMR analysis.
All timings from first incision to cutting arteries and veins to the lung were recorded so that the period of ischemia could be determined immediately after tissue resection, excess blood was blotted from the tissue, and small pieces of non-cancerous and tumor tissue were cut by the surgeon and freeze-clamped in liquid N2 within 5 minutes of removal from the chest cavity. The freezing process arrested metabolic changes almost instantaneously. […] Non-cancerous tissue was removed at least 2 cm from the tumor margin and certified to be tumor-free by trained pathologists. Subsequent pathological evaluation also confirmed tumor status and provided the tumor stage. All samples were stored at −80° C. until further processing for analysis.
Frozen tissue samples were pulverized into <10 μm particles in liquid N2 using a Spex freezer mill (Spex CertiPrep, Inc., Metuchen, N.J.) to maximize efficiency for subsequent extraction while maintaining biochemical integrity. An aliquot of the frozen powder was lyophilized before extraction for metabolites.
Water-soluble or polar metabolites were extracted from lyophilized tissue powders (4-48 mg) in ice-cold 10% trichloroacetic acid (TCA) (v/w minimum 40/1) while leaving proteins, nucleic acids, and polysaccharides behind, as described previously (Kim et al. Antioxidants & Redox Signaling 2001, 3:361-373). The extraction was performed twice for quantitative recovery. An aliquot (150 μl) of plasma samples were made to final 10% TCA concentration to precipitate proteins and recover metabolites in the supernatant. TCA was then removed from tissue or plasma extracts by lyophilization. The dry pellet was dissolved in nanopure water and two small aliquots were lyophilized for silylation and GC-MS analysis while the remaining bulk was passed through a Chelex 100 resin column (Bio-Rad Laboratories, Inc., Hercules, Calif.) to neutralize and remove interfering multivalent cations for NMR analysis.
The ^1H reference standard, DSS (2,2-Dimethyl-2-silapentane-5-sulfonate sodium salt) was added (30 or 50 nmoles) to the TCA extracts of tissue or plasma samples, respectively. […]

[3] = Time course analysis of 13C-metabolites in plasma by 1H NMR after [U-13C]-Glc infusion; type: in vivo, human; settings: 3 hrs after [U-13C]-glucose infusion, lung cancer patients
Protocol: The extraction was performed twice for quantitative recovery.
See Fan et al. (2008) Prog. NMR Spectrosc. 52, 69-117; Fan (1996) Prog. NMR Spectrosc 28, 161-219.
In order to determine the optimal time to sample tissue after infusing [U-^13C]-Glc into lung cancer patients, we used ^1H NMR to analyze the profiles of ^13C-labeled products in plasma samples at several time points. Other than the administered tracer itself ([U-^13C]-Glc), the major ^13C-labeled metabolite in plasma was lactate. Plasma samples were collected 0, 3, and 12 hr after [U-^13C]-Glc infusion, as described in the Patient Treatment and Sample Collection section above. Unlabeled glucose and lactate concentrations were quantified by 1-D ^1H NMR using DSS as the calibration standard. Their % ^13C enrichment was determined from the respective ^13C satellite peaks in 1-D ^1H NMR spectra. Panels A-D illustrate the time course changes in glucose and lactate concentrations as well as their % ^13C enrichment. […] The chemical shifts of lactate and Ala reflected the acidic pH of the TCA extract.

[4] = Isotopic enrichment in SCID mouse tissue lactate and glucose by 1D 1H NMR; type: in vivo; settings: Lac at C3, Glc at C1α
Protocol: as §1
Mice were sacrificed at different times post glucose injection, and the following organs were dissected sequentially: lung, heart, liver, kidney, brain, spleen, and thigh muscle. Dissected tissue was flash frozen in liquid N2 within 1 minute of killing the animal.
Frozen tissues were ground in liquid N2 to <10 μm particles in a 6750 Freezer/Mill (Retsch, Inc., Newtown, Pa.) and extracted for soluble and lipidic metabolites as follows. Up to 20 mg of frozen tissue powder in 15 ml polypropylene conical centrifuge tube (Sarstedt, Newton, N.C.) containing 3 mm diameter glass beads was vigorously mixed with 2 ml of cold acetonitrile (mass spectrometry grade, stored at −20° C.) to denature proteins, followed by addition of 1.5 ml nanopure water, and 1 ml HPLC-grade chloroform (Fisher Scientific). The mixture was shaken vigorously until achieving a milky consistency followed by centrifugation at 3,000 g for 20 minutes at 4° C. to separate the polar (top), lipidic (bottom), and tissue debris layers (interface). The polar and lipidic layers were recovered sequentially and the remaining cell debris was extracted again with 0.5 ml chloroform:methanol:butylated hydroxytoluene (BHT) (2:1:1 mM) which was pooled with the lipidic fraction. All three fractions were vacuum-dried in a speedvac device (Vacufuge, Eppendorf, New York, N.Y.) and/or by lyophylization. The dry weight of tissue debris was obtained for normalization of metabolite content. The polar extracts were redissolved in 100% D2O containing 30 nmol perdeuterated DSS (2,2-dimethyl-2-silapentane-5-sulfonate, Cambridge Isotope Laboratories, Andover, Mass.) as internal chemical shift and concentration reference for NMR measurement.
as §2
The same extracts from FIG. 9 were analyzed by NMR to complement the GC-MS analysis. The ^13C enrichment into glucose/glucose-6-phosphate and lactate was determined by 1D ^1H NMR. The enrichments at 15 and 30 minutes post infusion were substantial in all tissues, and peak lactate enrichments differed according to the metabolic activity or glucose uptake rates of the different tissues (Table 7).
Lac measured at C3, G1c measured at C1α by NMR

[5] = GC-MS quantification of total and 13C-enriched metabolites in paired normal and cancerous lung tissues

SMILES: C#Cc1cccc(Nc2ncnc3cc(OCCOC)c(OCCOC)cc23)c1 [Erlotinib]
response of lesion (lung tumor; lower lobe (LL) lesion): responded | response of lesion (lung tumor; upper lobe (UL) lesion): did not

apparent half-life in plasma ([1]; mouse, in vivo): 16 to 22 min | initial % 13C enrichment in plasma ([1]; mouse, in vivo): 65% | % 13C enrichment of metabolite in lung tissue [2]: 15.5%
SMILES: O[13CH2][13C@H]1O[13CH](O)[13C@H](O)[13C@@H](O)[13C@@H]1O (stereo partly shown) [[U-^13C]-Glucose, uniformly ^13C labeled glucose, reference compound]

SMILES: CC(O)C(=O)O (stereo not shown) [lactate]
peak % 13C enrichment in plasma ([1]; SCID mice, after [U-13C]-glucose bolus): 8-12% | time of peak 13C enrichment in plasma ([1]; SCID mice, post injection): 15 to 20 min | % 13C enrichment in plasma [3]: 5-22% | % 13C isotopic enrichment in tissue ([4]; Heart, 15 min): 25% | % 13C isotopic enrichment in tissue ([4]; Heart, 30 min): 33% | % 13C isotopic enrichment in tissue ([4]; Kidney, 15 min): 19% | % 13C isotopic enrichment in tissue ([4]; Kidney, 30 min): 17% | % 13C isotopic enrichment in tissue ([4]; Liver, 15 min): 11% | % 13C isotopic enrichment in tissue ([4]; Liver, 30 min): 13% | % 13C isotopic enrichment in tissue ([4]; Lung N, 15 min): 20% | % 13C isotopic enrichment in tissue ([4]; Lung N, 30 min): 17% | % 13C isotopic enrichment in tissue ([4]; Thigh muscle, 15 min): 17% | % 13C isotopic enrichment in tissue ([4]; Thigh muscle, 30 min): 11% | metabolite content of lung tissue ([5]; patient #6 (sqC, grade II), cancer tissue): 29.55 μmole/g dry weight | metabolite content of lung tissue ([5]; patient #6 (sqC, grade II), normal tissue): 2.66 μmole/g dry weight | metabolite content of lung tissue ([5]; patient #7 (adenoC, grade II), cancer tissue): 10.62 μmole/g dry weight | metabolite content of lung tissue ([5]; patient #7 (adenoC, grade II), normal tissue): 11.80 μmole/g dry weight | metabolite content of lung tissue ([5]; patient #8 (sqC, grade II-III), cancer tissue): 17.72 μmole/g dry weight | metabolite content of lung tissue ([5]; patient #8 (sqC, grade II-III), normal tissue): 9.44 μmole/g dry weight | metabolite content of lung tissue ([5]; patient #9 (sqC, grade II), cancer tissue): 25.31 μmole/g dry weight | metabolite content of lung tissue ([5]; patient #9 (sqC, grade II), normal tissue): 19.52 μmole/g dry weight | metabolite content of lung tissue ([5]; patient #10 (sqC, grade III), cancer tissue): 29.67 μmole/g dry weight | metabolite content of lung tissue ([5]; patient #10 (sqC, grade III), normal tissue): 8.27 μmole/g dry weight
